Results: patent US9738634B2, “Heterocyclic amide compound and herbicide” (SYNGENTA PARTICIPATIONS AG, priority 2013, dated 2017)

How the values were obtained:
Assay type in all cases: in vivo
Settings in all cases: treatment dosage 320 g/ha
barnyard grass [1] = experiment: Test Example 1: weedkilling efficacy, preemergent weed treatment in the submerged state; A: barnyard grass
Outline: (§1)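 Submerged pre-emergence treatment, water-surface application of compound emulsion at g/ha dosages; 4 cm flooded alluvial soil, weeds sown and 2.5-leaf rice transplanted same day. Rated after 3 weeks, greenhouse.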

bulrush [2] = experiment: Test Example 1: weedkilling efficacy, preemergent weed treatment in the submerged state; B: bulrush
Outline: as §1

oval-leafed pondweed [3] = experiment: Test Example 1: weedkilling efficacy, preemergent weed treatment in the submerged state; C: oval-leafed pondweed
Outline: as §1

transplanted rice = experiment: Test Example 1: preemergent weed treatment in the submerged state, effect on crop; a: transplanted rice
Outline: as §1

barnyard grass [4] = experiment: Test Example 2: weedkilling efficacy, growth period weed treatment in the submerged state; A: barnyard grass
Outline: (§2)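 Seedlings at 1-2 leaves in 4 cm-deep submerged alluvial soil received emulsion formulations on the water surface, dosed per hectare; effects were judged 3 weeks on.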

bulrush [5] = experiment: Test Example 2: weedkilling efficacy, growth period weed treatment in the submerged state; B: bulrush
Outline: as §2

oval-leafed pondweed [6] = experiment: Test Example 2: weedkilling efficacy, growth period weed treatment in the submerged state; C: oval-leafed pondweed
Outline: as §2

crabgrass [7] = experiment: Test Example 3: weedkilling efficacy through soil treatment; D: crabgrass
Outline: (§3)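 Crop and weed responses were judged three weeks after a uniform surface spray of the water-diluted emulsion at the given g/ha rate. Seeds sat beneath about 1.5 cm of sterilized diluvial soil, and boxes stood in a greenhouse at 25 to 30° C.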

green foxtail [8] = experiment: Test Example 3: weedkilling efficacy through soil treatment; E: green foxtail
Outline: as §3

barnyard grass [9] = experiment: Test Example 3: weedkilling efficacy through soil treatment; F: barnyard grass
Outline: as §3

wild oat [10] = experiment: Test Example 3: weedkilling efficacy through soil treatment; G: wild oat
Outline: as §3

black-grass [11] = experiment: Test Example 3: weedkilling efficacy through soil treatment; H: black-grass
Outline: as §3

Italian ryegrass [12] = experiment: Test Example 3: weedkilling efficacy through soil treatment; I: Italian ryegrass
Outline: as §3

common wind-grass [13] = experiment: Test Example 3: weedkilling efficacy through soil treatment; J: common wind-grass
Outline: as §3

Indian mallow [14] = experiment: Test Example 3: weedkilling efficacy through soil treatment; K: Indian mallow
Outline: as §3

redroot pigweed [15] = experiment: Test Example 3: weedkilling efficacy through soil treatment; L: redroot pigweed
Outline: as §3

chickweed [16] = experiment: Test Example 3: weedkilling efficacy through soil treatment; N: chickweed
Outline: as §3

catchweed [17] = experiment: Test Example 3: weedkilling efficacy through soil treatment; O: catchweed
Outline: as §3

birds-eye speedwell [18] = experiment: Test Example 3: weedkilling efficacy through soil treatment; p: birds-eye speedwell
Outline: as §3

directly sown rice [19] = experiment: Test Example 3: soil treatment, effect on crop; b: directly sown rice
Outline: as §3

corn [20] = experiment: Test Example 3: soil treatment, effect on crop; c: corn
Outline: as §3

soybean [21] = experiment: Test Example 3: soil treatment, effect on crop; d: soybean
Outline: as §3

wheat [22] = experiment: Test Example 3: soil treatment, effect on crop; e: wheat
Outline: as §3

beet [23] = experiment: Test Example 3: soil treatment, effect on crop; f: beet
Outline: as §3

rapeseed [24] = experiment: Test Example 3: soil treatment, effect on crop; g: rapeseed
Outline: as §3

crabgrass [25] = experiment: Test Example 4: weedkilling efficacy by foliar treatment; D: crabgrass
Outline: (§4)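 Seeds are spot-sown into sterilized diluvial soil and covered with about 1.5 cm of soil. After 14 days' greenhouse growth at 25 to 30° C, plants are sprayed on stems and leaves with diluted emulsion at the stated g/ha rate, then scored at 3 weeks.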

green foxtail [26] = experiment: Test Example 4: weedkilling efficacy by foliar treatment; E: green foxtail
Outline: as §4

barnyard grass [27] = experiment: Test Example 4: weedkilling efficacy by foliar treatment; F: barnyard grass
Outline: as §4

wild oat [28] = experiment: Test Example 4: weedkilling efficacy by foliar treatment; G: wild oat
Outline: as §4

black-grass [29] = experiment: Test Example 4: weedkilling efficacy by foliar treatment; H: black-grass
Outline: as §4

Italian ryegrass [30] = experiment: Test Example 4: weedkilling efficacy by foliar treatment; I: Italian ryegrass
Outline: as §4

common wind-grass [31] = experiment: Test Example 4: weedkilling efficacy by foliar treatment; J: common wind-grass
Outline: as §4

Indian mallow [32] = experiment: Test Example 4: weedkilling efficacy by foliar treatment; K: Indian mallow
Outline: as §4

redroot pigweed [33] = experiment: Test Example 4: weedkilling efficacy by foliar treatment; L: redroot pigweed
Outline: as §4

fig-leafed goosefoot = experiment: Test Example 4: weedkilling efficacy by foliar treatment; M: fig-leafed goosefoot
Outline: as §4

chickweed [34] = experiment: Test Example 4: weedkilling efficacy by foliar treatment; N: chickweed
Outline: as §4

catchweed [35] = experiment: Test Example 4: weedkilling efficacy by foliar treatment; O: catchweed
Outline: as §4

birds-eye speedwell [36] = experiment: Test Example 4: weedkilling efficacy by foliar treatment; p: birds-eye speedwell
Outline: as §4

directly sown rice [37] = experiment: Test Example 4: foliar treatment, effect on crop; b: directly sown rice
Outline: as §4

corn [38] = experiment: Test Example 4: foliar treatment, effect on crop; c: corn
Outline: as §4

soybean [39] = experiment: Test Example 4: foliar treatment, effect on crop; d: soybean
Outline: as §4

wheat [40] = experiment: Test Example 4: foliar treatment, effect on crop; e: wheat
Outline: as §4

beet [41] = experiment: Test Example 4: foliar treatment, effect on crop; f: beet
Outline: as §4

rapeseed [42] = experiment: Test Example 4: foliar treatment, effect on crop; g: rapeseed
Outline: as §4

CC1=C(c2ccccc2)C(=O)N(C(C)(C)C(=O)Nc2cc(OC(F)F)ccn2)CO1 [B-2-64]
A (barnyard grass) weedkilling efficacy grade (barnyard grass [1]): 5 (weed kill ratio 90% or more, (practically complete withering)) | B (bulrush) weedkilling efficacy grade (bulrush [2]): 5 (weed kill ratio 90% or more, (practically complete withering)) | C (oval-leafed pondweed) weedkilling efficacy grade (oval-leafed pondweed [3]): 5 (weed kill ratio 90% or more, (practically complete withering)) | a (transplanted rice) effect on crop grade (transplanted rice): 4 (weed kill ratio 70% or more, less than 90%) | A (barnyard grass) weedkilling efficacy grade (barnyard grass [4]): 5 (weed kill ratio 90% or more, (practically complete withering)) | B (bulrush) weedkilling efficacy grade (bulrush [5]): 5 (weed kill ratio 90% or more, (practically complete withering)) | C (oval-leafed pondweed) weedkilling efficacy grade (oval-leafed pondweed [6]): 5 (weed kill ratio 90% or more, (practically complete withering)) | D (crabgrass) weedkilling efficacy grade (crabgrass [7]): 5 (weed kill ratio 90% or more, (practically complete withering)) | E (green foxtail) weedkilling efficacy grade (green foxtail [8]): 5 (weed kill ratio 90% or more, (practically complete withering)) | F (barnyard grass) weedkilling efficacy grade (barnyard grass [9]): 5 (weed kill ratio 90% or more, (practically complete withering)) | G (wild oat) weedkilling efficacy grade (wild oat [10]): 3 (weed kill ratio 40% or more, less than 70%) | H (black-grass) weedkilling efficacy grade (black-grass [11]): 5 (weed kill ratio 90% or more, (practically complete withering)) | I (Italian ryegrass) weedkilling efficacy grade (Italian ryegrass [12]): 5 (weed kill ratio 90% or more, (practically complete withering)) | J (common wind-grass) weedkilling efficacy grade (common wind-grass [13]): 5 (weed kill ratio 90% or more, (practically complete withering)) | K (Indian mallow) weedkilling efficacy grade (Indian mallow [14]): 3 (weed kill ratio 40% or more, less than 70%) | L (redroot pigweed) weedkilling efficacy grade (redroot pigweed [15]): 4 (weed kill ratio 70% or more, less than 90%) | N (chickweed) weedkilling efficacy grade (chickweed [16]): 4 (weed kill ratio 70% or more, less than 90%) | O (catchweed) weedkilling efficacy grade (catchweed [17]): 0 (weed kill ratio 5% or less (practically no effect)) | P (birds-eye speedwell) weedkilling efficacy grade (birds-eye speedwell [18]): 5 (weed kill ratio 90% or more, (practically complete withering)) | b (directly sown rice) effect on crop grade (directly sown rice [19]): 4 (weed kill ratio 70% or more, less than 90%) | c (corn) effect on crop grade (corn [20]): 1 (weed kill ratio 5% or more, less than 20%) | d (soybean) effect on crop grade (soybean [21]): 0 (weed kill ratio 5% or less (practically no effect)) | e (wheat) effect on crop grade (wheat [22]): 0 (weed kill ratio 5% or less (practically no effect)) | f (beet) effect on crop grade (beet [23]): 4 (weed kill ratio 70% or more, less than 90%) | g (rapeseed) effect on crop grade (rapeseed [24]): 3 (weed kill ratio 40% or more, less than 70%) | D (crabgrass) weedkilling efficacy grade (crabgrass [25]): 5 (weed kill ratio 90% or more, (practically complete withering)) | E (green foxtail) weedkilling efficacy grade (green foxtail [26]): 5 (weed kill ratio 90% or more, (practically complete withering)) | F (barnyard grass) weedkilling efficacy grade (barnyard grass [27]): 5 (weed kill ratio 90% or more, (practically complete withering)) | G (wild oat) weedkilling efficacy grade (wild oat [28]): 4 (weed kill ratio 70% or more, less than 90%) | H (black-grass) weedkilling efficacy grade (black-grass [29]): 5 (weed kill ratio 90% or more, (practically complete withering)) | I (Italian ryegrass) weedkilling efficacy grade (Italian ryegrass [30]): 5 (weed kill ratio 90% or more, (practically complete withering)) | J (common wind-grass) weedkilling efficacy grade (common wind-grass [31]): 5 (weed kill ratio 90% or more, (practically complete withering)) | K (Indian mallow) weedkilling efficacy grade (Indian mallow [32]): 4 (weed kill ratio 70% or more, less than 90%) | L (redroot pigweed) weedkilling efficacy grade (redroot pigweed [33]): 4 (weed kill ratio 70% or more, less than 90%) | M (fig-leafed goosefoot) weedkilling efficacy grade (fig-leafed goosefoot): 4 (weed kill ratio 70% or more, less than 90%) | N (chickweed) weedkilling efficacy grade (chickweed [34]): 4 (weed kill ratio 70% or more, less than 90%) | O (catchweed) weedkilling efficacy grade (catchweed [35]): 4 (weed kill ratio 70% or more, less than 90%) | P (birds-eye speedwell) weedkilling efficacy grade (birds-eye speedwell [36]): 4 (weed kill ratio 70% or more, less than 90%) | b (directly sown rice) effect on crop grade (directly sown rice [37]): 4 (weed kill ratio 70% or more, less than 90%) | c (corn) effect on crop grade (corn [38]): 0 (weed kill ratio 5% or less (practically no effect)) | d (soybean) effect on crop grade (soybean [39]): 4 (weed kill ratio 70% or more, less than 90%) | e (wheat) effect on crop grade (wheat [40]): 0 (weed kill ratio 5% or less (practically no effect)) | f (beet) effect on crop grade (beet [41]): 4 (weed kill ratio 70% or more, less than 90%) | g (rapeseed) effect on crop grade (rapeseed [42]): 4 (weed kill ratio 70% or more, less than 90%)
